# In PMC12540964 (AMB Express, 2025):
# pIC50: −log10 of the molar value. Read-outs that look alike come from different tables or passages of the source. Marks after values point to notes of the source that are not given here.
# How the values were obtained:
# [1] = tested on: Escherichia coli (ATCC 25922); assay: Disk diffusion method (inhibition zone diameter); format: cell-based; conditions: E. coli, Gram-negative
# Method: (§1) The strains Escherichia coli (ATCC 25922), Pseudomonas aeruginosa NIH, Listeria monocytogenes (ATCC 13932), and Staphylococcus aureus (ATCC 29213) were used. After overnight incubation at 30 °C, the inhibition zone diameters (IZD) were measured in millimeters (mm). Next, the microdilution method served to assess the minimum inhibitory concentration (MIC) and minimum bactericidal concentration (MBC) (Bouyahya et al. [2020a], [b]).
# [2] = tested on: Listeria monocytogenes (ATCC 13932); assay: Disk diffusion method (inhibition zone diameter); format: cell-based; conditions: L. monocytogenes, Gram-positive
# Method: as §1
# [3] = tested on: Pseudomonas aeruginosa NIH; assay: Disk diffusion method (inhibition zone diameter); format: cell-based; conditions: P. aeruginosa, Gram-negative
# Method: as §1
# [4] = tested on: Staphylococcus aureus (ATCC 29213); assay: Disk diffusion method (inhibition zone diameter); format: cell-based; conditions: S. aureus, Gram-positive
# Method: as §1
# [5] = tested on: Escherichia coli (ATCC 25922); assay: Microdilution method (MIC, MBC); format: cell-based
# Method: as §1
# [6] = tested on: Listeria monocytogenes (ATCC 13932); assay: Microdilution method (MIC, MBC); format: cell-based; conditions: for MBC / MIC: Listeria monocytogenes; for MBC/MIC: 1 suggests bactericidal
# Method: as §1
# [7] = tested on: Pseudomonas aeruginosa NIH; assay: Microdilution method (MIC, MBC); format: cell-based; conditions: for MBC / MIC: Pseudomonas aeruginosa; for MBC: read-out: MBC (minimum bactericidal concentration); for MIC: read-out: MIC (minimum inhibitory concentration); for MBC/MIC: 1 suggests bactericidal
# Method: as §1
# [8] = tested on: Staphylococcus aureus (ATCC 29213); assay: Microdilution method (MIC, MBC); format: cell-based
# Method: as §1
# [9] = DPPH test; conditions: radical scavenging, 30 min, 517 nm
# Method: This assay used DPPH radical to assess the free radical-scavenging ability. Samples dissolved in methanol were mixed with a methanolic solution of DPPH and incubated, in triplicate, at ambient temperature for 30 min (El Omari et al. [2023]). Absorbance was read at 517 nm, and the percentage of DPPH radical scavenging and the inhibition in IC50 (μg/mL) were calculated. Trolox served as a positive control.
# [10] = ABTS radical scavenging activity
# Method: The ABTS cation radical was generated from the reaction between ABTS solution and potassium persulfate with Trolox as a positive control. The assay was performed in triplicate and expressed in IC50 (μg/mL) (El Omari et al. [2023]).
# [11] = Reducing ferric power test (FRAP); conditions: 700 nm
# Method: CEEO, carvacrol, menthol, and tricosane were mixed with phosphate buffer and potassium ferricyanide solution, incubated, and treated with trichloroacetic acid. After centrifugation, the upper layer was analyzed for absorbance (700 nm) with Trolox serving as a reference. The assay was done in triplicate, and the IC50 (μg/mL) was calculated (El Omari et al. [2023]).
# [12] = target: T1, α-amylase (Bacillus licheniformis, UniProt P06278); assay: α-Amylase inhibitory test; format: biochemical
# T1 construct: purchased
# Method: (§2) The α-glucosidase from Saccharomyces cerevisiae and the α-amylase from Bacillus licheniformis were also obtained from reliable commercial sources. Additional reagents were carefully selected from reputable suppliers. Mueller–Hinton agar was sourced from Biokar in Beauvais, France. All other chemicals used are of analytical grade.
# Initially, 250 μL of each sample was mixed with 250 μL of sodium phosphate buffer (SPB) (0.02 M & pH = 6.9) and α-amylase enzyme (240 U/mL). The blend was then incubated at 37 °C/20 min. Then, a 1% starch solution (250 μL) in SPB was added, followed by incubation at 37 °C/15 min. Thereafter, 1 mL of dinitrosalicylic acid (DNS) was also added, and the mix was heated for 10 min (Bouyahya et al. [2019a], [b]; Omari et al. [2023]). The solution was then diluted with 2 mL of sterile water, and the OD (540 nm) was measured. […] The % of inhibition was calculated using the formula: [drawing 1]
# [13] = target: T2, α-glucosidase (Saccharomyces cerevisiae, UniProt P53341); assay: α-Glucosidase inhibitory test; format: biochemical
# T2 construct: purchased
# Method: as §2
# The inhibition of α-glucosidase action was assessed using the pNPG substrate as previously detailed (Bouyahya et al. [2021]). A mixture of 200 μL of the samples and 100 μL SPB (0.1 M & pH = 6.7), mixed with α-glucosidase (0.1 U/mL), underwent incubation at 37 °C/10 min. Next, 200 μL of pNPG (1 mM) solution in SPB (0.1 M & pH = 6.7) was added, then incubated at 37 °C/30 min. The measurement of α-glucosidase inhibition was done by measuring the OD (405 nm) after adding 1 mL of Na2CO3 (0.1 M).
# [14] = target: elastase (Sus scrofa, UniProt P00772); assay: Elastase inhibitory assay; format: biochemical; conditions: 410 nm; for pIC50: Elastase IC50, N-succinyl-Ala-Ala-p-nitroanilide
# Method: Then, 200 µL of an elastase solution prepared in Tris–HCl buffer (0.2 M, pH 8.0) was mixed with 50 µL of each sample. Following a 15-min incubation at 25 °C, 200 µL of N-succinyl-Ala-Ala-p-nitroanilide solution was added, and the reaction mixtures were homogenized. Absorbances were recorded at 410 nm after an additional 20-min incubation at 25 °C. The data obtained were used to determine the IC50 and to calculate the percent inhibition of elastase.
# [15] = target: tyrosinase (Agaricus bisporus, UniProt C7FF04); set-up: method as in El Khoury et al. [2019]; conditions: carvacrol from Origanum EOs; ref El Khoury et al. [2019]; cited from earlier work
# [16] = ATCC25922, E. coli, read-out: MBC (minimum bactericidal concentration)
# [17] = ATCC25922, E. coli, read-out: MIC (minimum inhibitory concentration)
# [18] = ATCC13932, L. monocytogenes, read-out: MBC (minimum bactericidal concentration)
# [19] = ATCC13932, L. monocytogenes, read-out: MIC (minimum inhibitory concentration)
# [20] = ATCC29213, S. aureus, read-out: MBC (minimum bactericidal concentration)
# [21] = ATCC29213, S. aureus, read-out: MIC (minimum inhibitory concentration)
# T1 sequence (P06278 30-512): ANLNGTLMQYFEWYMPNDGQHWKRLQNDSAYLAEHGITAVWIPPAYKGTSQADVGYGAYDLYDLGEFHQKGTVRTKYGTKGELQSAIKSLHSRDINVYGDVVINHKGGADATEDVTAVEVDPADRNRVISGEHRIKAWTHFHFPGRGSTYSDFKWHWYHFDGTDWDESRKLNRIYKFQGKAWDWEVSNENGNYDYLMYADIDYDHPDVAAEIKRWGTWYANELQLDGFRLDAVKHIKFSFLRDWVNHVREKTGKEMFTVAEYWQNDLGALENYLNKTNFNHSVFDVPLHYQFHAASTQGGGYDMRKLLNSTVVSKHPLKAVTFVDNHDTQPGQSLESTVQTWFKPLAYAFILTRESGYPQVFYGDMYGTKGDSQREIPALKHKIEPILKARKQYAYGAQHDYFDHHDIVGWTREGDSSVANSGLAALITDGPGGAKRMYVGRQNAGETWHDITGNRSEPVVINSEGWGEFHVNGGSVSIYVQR
# Chain of elastase (P00772 27-266): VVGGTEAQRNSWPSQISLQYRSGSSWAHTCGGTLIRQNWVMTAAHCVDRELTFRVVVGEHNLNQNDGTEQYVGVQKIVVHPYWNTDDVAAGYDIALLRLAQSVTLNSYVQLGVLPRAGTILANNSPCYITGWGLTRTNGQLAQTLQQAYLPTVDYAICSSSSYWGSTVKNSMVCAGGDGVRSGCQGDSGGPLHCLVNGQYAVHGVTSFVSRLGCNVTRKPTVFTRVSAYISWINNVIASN
# T2 sequence (P53341 whole entry): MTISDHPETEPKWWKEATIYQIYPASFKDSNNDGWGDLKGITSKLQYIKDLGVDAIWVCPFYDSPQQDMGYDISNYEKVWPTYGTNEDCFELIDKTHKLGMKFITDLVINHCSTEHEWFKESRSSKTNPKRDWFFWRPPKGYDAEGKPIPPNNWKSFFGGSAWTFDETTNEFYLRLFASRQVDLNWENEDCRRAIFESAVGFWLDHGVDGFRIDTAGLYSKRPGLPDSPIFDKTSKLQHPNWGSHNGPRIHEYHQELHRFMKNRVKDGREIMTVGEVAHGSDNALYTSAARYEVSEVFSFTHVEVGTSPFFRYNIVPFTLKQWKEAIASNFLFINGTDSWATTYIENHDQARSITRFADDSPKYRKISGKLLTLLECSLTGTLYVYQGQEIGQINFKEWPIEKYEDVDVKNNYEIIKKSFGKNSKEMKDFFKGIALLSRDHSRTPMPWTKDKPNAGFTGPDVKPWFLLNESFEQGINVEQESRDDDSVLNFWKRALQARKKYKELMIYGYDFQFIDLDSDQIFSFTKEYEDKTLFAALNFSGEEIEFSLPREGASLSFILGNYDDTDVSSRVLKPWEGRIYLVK
# Chain of tyrosinase (C7FF04 1-392): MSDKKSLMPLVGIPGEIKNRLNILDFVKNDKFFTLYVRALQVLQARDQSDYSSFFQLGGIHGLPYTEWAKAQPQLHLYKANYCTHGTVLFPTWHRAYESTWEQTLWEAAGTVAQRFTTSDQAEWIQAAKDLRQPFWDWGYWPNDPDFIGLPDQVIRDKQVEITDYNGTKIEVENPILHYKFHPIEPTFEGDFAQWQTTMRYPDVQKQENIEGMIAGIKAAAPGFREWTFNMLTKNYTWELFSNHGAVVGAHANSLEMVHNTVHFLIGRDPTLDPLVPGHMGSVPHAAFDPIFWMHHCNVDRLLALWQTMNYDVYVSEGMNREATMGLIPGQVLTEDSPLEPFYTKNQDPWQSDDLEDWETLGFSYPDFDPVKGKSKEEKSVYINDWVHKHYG
SMILES,IZD (inhibition zone diameter) [1],IZD (inhibition zone diameter) [2],IZD (inhibition zone diameter) [3],IZD (inhibition zone diameter) [4],"MBC [5, 16] [µg/mL]","MIC [5, 17] [µg/mL]","MBC [6, 18] [µg/mL]","MIC [6, 19] [µg/mL]",MBC ([7]; P. aeruginosa) [µg/mL],MIC ([7]; P. aeruginosa) [µg/mL],"MBC [8, 20] [µg/mL]","MIC [8, 21] [µg/mL]",DPPH IC50 [9],ABTS IC50 [10],FRAP IC50 [11],pIC50 [12],pIC50 [13],pIC50 [14],MBC/MIC ([6]; L. monocytogenes),MBC/MIC ([7]; P. aeruginosa),also measured
"CC1CCC(C(C)C)C(O)C1 (stereo not shown) [Menthol, menthol]",14 ± 2^a mm,26.33 ± 1.52^b mm,18 ± 4.5^b mm,32 ± 2.64^a mm,2,0.5,0.5,0.25,1,0.25,1,0.5,58.89 ± 4.03^a µg/mL,71.76 ± 3.16^a µg/mL,57.93 ± 15.63^f µg/mL,2.52,2.93,3.14,–,–,–
"Cc1c(C)c2c(c(C)c1O)CCC(C)(C(=O)O)O2 (stereo not shown) [Trolox, reference compound]",–,–,–,–,–,–,–,–,–,–,–,–,34.12 ± 2.13^h µg/mL,55.25 ± 4.19^b µg/mL,54.74 ± 3.85^f µg/mL,–,–,–,–,–,–
"O=C(N[C@H](CO)[C@H](O)c1ccc([N+](=O)[O-])cc1)C(Cl)Cl [Chloramphenicol, reference compound]",–,–,–,–,32,8,32,16,64,64,32,8,–,–,–,–,–,–,–,–,–
"CCCCCCCCCCCCCCCCCCCCCCC [Tricosane, tricosane]",20.67 ± 2.08^C mm,31.67 ± 4.04^b mm,17 ± 2.51^b mm,29 ± 4.58^a mm,1,0.25,0.25,0.25,0.5,0.5,0.5,0.125,91.03 ± 0.3^b µg/mL,120.34 ± 2.97 µg/mL,103.9 ± 2.48 µg/mL,2.93,3.23,–,1,1,"IC50 ([14]; N-succinyl-Ala-Ala-p-nitroanilide, read-out: Elastase IC50 (converted)): 384 µM"
"Cc1ccc(C(C)C)cc1O [Carvacrol, carvacrol]",31.33 ± 2.51^b mm,33 ± 2.64^a mm,29 ± 2.64^c mm,35.33 ± 1.52^a mm,–,–,–,–,–,–,–,–,48.06 ± 4.31^h µg/mL,81.41 ± 4.31^b µg/mL,59.96 ± 2.60^f µg/mL,2.42,2.87,3.08,1,1,"MBC ([5]; ATCC25922, read-out: MBC (minimum bactericidal concentration)): 0.25 µg/mL; MIC ([5]; ATCC25922, read-out: MIC (minimum inhibitory concentration)): 0.125 µg/mL; MBC ([6]; ATCC13932, read-out: MBC (minimum bactericidal concentration)): 0.125 µg/mL; MIC ([6]; ATCC13932, read-out: MIC (minimum inhibitory concentration)): 0.125 µg/mL; MBC [7]: 0.5 µg/mL; MIC [7]: 0.5 µg/mL; MBC ([8]; ATCC29213, read-out: MBC (minimum bactericidal concentration)): 0.025 µg/mL; MIC ([8]; ATCC29213, read-out: MIC (minimum inhibitory concentration)): 0.0125 µg/mL; tyrosinase inhibition [15]: 56.55%"
